Test results published in patent US20220340597A1, “HEXAHYDRO-1H-PYRAZINO[1,2-A]PYRAZINE COMPOUNDS FOR THE TREATMENT OF AUTOIMMUNE DISEASE” (Hoffmann-La Roche Inc., priority 2019, published 2022).

Tests used:
human TLR8 = target: T1, human TLR8 (Homo sapiens, UniProt Q9NR97); assay: HEK293-Blue-hTLR-8 cells assay
T1 sequence (Q9NR97 27-1041): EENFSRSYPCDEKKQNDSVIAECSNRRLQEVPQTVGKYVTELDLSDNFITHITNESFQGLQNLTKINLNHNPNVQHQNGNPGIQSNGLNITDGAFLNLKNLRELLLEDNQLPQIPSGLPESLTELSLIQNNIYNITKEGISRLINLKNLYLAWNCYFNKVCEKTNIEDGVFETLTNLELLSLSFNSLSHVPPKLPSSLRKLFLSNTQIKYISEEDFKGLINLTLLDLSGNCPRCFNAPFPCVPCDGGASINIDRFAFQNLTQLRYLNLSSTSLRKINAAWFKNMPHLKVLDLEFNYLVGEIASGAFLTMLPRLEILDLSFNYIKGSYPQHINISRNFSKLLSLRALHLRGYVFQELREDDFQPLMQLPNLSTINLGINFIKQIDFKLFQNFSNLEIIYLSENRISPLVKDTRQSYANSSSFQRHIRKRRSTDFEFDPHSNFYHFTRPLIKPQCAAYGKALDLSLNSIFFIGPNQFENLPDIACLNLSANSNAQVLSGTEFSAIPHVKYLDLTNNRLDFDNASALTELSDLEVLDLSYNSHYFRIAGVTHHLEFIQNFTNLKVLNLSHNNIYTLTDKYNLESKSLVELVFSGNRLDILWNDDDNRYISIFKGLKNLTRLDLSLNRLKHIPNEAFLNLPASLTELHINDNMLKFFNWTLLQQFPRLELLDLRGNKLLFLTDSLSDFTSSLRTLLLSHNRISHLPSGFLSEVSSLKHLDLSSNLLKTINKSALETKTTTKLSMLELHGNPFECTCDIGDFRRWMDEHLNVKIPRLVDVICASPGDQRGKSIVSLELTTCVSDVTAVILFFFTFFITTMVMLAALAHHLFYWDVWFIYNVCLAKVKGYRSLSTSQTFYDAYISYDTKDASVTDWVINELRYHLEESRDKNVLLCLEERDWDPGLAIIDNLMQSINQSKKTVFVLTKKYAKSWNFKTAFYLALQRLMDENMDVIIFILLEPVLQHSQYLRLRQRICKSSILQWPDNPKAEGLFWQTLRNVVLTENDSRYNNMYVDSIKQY

human TLR7 = target: T2, human TLR7 (Homo sapiens, UniProt Q9NYK1); assay: HEK293-Blue-hTLR-7 cells assay; assay type: cell-based; settings: HEK293-Blue-hTLR7 cells, R848 stimulation, 20 hrs, SEAP reporter; read-out: HEK/hTLR7 IC50
T2 construct: host or cells: HEK293 (HEK-Blue hTLR7)
T2 sequence (Q9NYK1 27-1049): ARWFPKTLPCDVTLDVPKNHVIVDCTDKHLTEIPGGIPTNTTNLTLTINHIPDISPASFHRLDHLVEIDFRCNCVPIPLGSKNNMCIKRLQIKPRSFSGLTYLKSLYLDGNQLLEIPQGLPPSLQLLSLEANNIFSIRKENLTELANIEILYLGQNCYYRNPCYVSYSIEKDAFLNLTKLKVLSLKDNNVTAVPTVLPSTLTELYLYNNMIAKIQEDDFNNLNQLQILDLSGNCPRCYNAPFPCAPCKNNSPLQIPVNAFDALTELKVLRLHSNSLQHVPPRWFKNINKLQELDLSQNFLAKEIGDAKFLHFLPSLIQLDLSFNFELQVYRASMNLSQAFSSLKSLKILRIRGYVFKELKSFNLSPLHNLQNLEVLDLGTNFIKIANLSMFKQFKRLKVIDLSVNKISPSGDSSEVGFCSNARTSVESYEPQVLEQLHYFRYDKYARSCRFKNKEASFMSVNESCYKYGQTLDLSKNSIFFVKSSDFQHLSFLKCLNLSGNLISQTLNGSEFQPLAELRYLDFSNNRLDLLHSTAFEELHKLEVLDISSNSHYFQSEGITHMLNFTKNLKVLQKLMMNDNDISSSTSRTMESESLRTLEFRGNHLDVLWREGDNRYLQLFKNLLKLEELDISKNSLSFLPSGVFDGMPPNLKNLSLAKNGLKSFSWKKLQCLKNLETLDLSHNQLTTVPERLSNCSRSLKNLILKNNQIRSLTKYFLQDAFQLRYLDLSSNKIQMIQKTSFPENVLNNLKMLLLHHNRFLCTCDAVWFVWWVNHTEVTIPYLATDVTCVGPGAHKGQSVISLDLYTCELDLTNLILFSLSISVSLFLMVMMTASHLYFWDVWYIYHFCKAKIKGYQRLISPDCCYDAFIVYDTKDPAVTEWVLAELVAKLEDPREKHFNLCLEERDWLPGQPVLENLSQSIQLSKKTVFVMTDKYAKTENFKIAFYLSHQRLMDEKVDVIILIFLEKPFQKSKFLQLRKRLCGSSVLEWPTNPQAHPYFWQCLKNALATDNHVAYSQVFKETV

SMILES: [2H]c1ccc2c(N3C[C@@H]4CN(c5ccc(CCN6C[C@@H](N)[C@@H](F)C6)nc5)CCN4[C@@H](C)C3)ccc(C#N)c2n1 [Example 117, 5-[(4S,9aR)-8-[6-[2-[(3R,4S)-3-amino-4-fluoro-pyrrolidin-1-yl]ethyl]-3-pyridyl]-4-methyl-3,4,6,7,9,9a-hexahydro-1H-pyrazino[1,2-a]pyrazin-2-yl]-2-deuterio-quinoline-8-carbonitrile]
- IC50 (human TLR8): 24 nM
- IC50 (human TLR7): 23 nM

SMILES: [2H]c1ccc2c(N3C[C@@H]4CN(c5ncc(N6CC(C)(N)C6)cc5C)CCN4[C@@H](C)C3)ccc(C#N)c2n1 [Example 118, 5-[(4S,9aR)-8-[5-(3-amino-3-methyl-azetidin-1-yl)-3-methyl-2-pyridyl]-4-methyl-3,4,6,7,9,9a-hexahydro-1H-pyrazino[1,2-a]pyrazin-2-yl]-2-deuterio-quinoline-8-carbonitrile]
- IC50 (human TLR8): 6 nM
- IC50 (human TLR7): 4 nM

SMILES: [2H]c1ccc2c(N3C[C@@H]4CN(c5ccc6c(n5)CCNC6)CCN4[C@@H](C)C3)ccc(C#N)c2n1 [Example 121, 5-[(4S,9aR)-4-methyl-8-(5,6,7,8-tetrahydro-1,6-naphthyridin-2-yl)-3,4,6,7,9,9a-hexahydro-1H-pyrazino[1,2-a]pyrazin-2-yl]-2-deuterio-quinoline-8-carbonitrile]
- IC50 (human TLR8): 1 nM
- IC50 (human TLR7): 5 nM

SMILES: [2H]c1ccc2c(N3C[C@@H]4CN(c5ccc(CCN6C[C@H](OC)[C@@H](N)C6)cn5)CCN4[C@@H](C)C3)ccc(C#N)c2n1 [Example 122, 5-[(4S,9aR)-8-[5-[2-[(3S,4S)-3-amino-4-methoxy-pyrrolidin-1-yl]ethyl]-2-pyridyl]-4-methyl-3,4,6,7,9,9a-hexahydro-1H-pyrazino[1,2-a]pyrazin-2-yl]-2-deuterio-quinoline-8-carbonitrile]
- IC50 (human TLR8): 3 nM
- IC50 (human TLR7): 9 nM

SMILES: [2H]c1ccc2c(N3C[C@@H]4CN(c5ccc(CN6C[C@@H](N)[C@H](OC)C6)c(C)n5)CCN4[C@@H](C)C3)ccc(C#N)c2n1 [Example 123, 5-[(4S,9aR)-8-[5-[[(3R,4R)-3-amino-4-methoxy-pyrrolidin-1-yl]methyl]-6-methyl-2-pyridyl]-4-methyl-3,4,6,7,9,9a-hexahydro-1H-pyrazino[1,2-a]pyrazin-2-yl]-2-deuterio-quinoline-8-carbonitrile]
- IC50 (human TLR8): 6 nM
- IC50 (human TLR7): 27 nM

SMILES: C[C@@H]1CN(c2ccc(C#N)c3ncccc23)C[C@@H]2CN(CCc3ccc(N4C[C@H]5NCCO[C@@H]5C4)nc3)CCN21 [Example 124, 5-[(4R,9aS)-8-[2-[6-[(4aR,7aR)-3,4,4a,5,7,7a-hexahydro-2H-pyrrolo[3,4-b][1,4]oxazin-6-yl]-3-pyridyl]ethyl]-4-methyl-3,4,6,7,9,9a-hexahydro-1H-pyrazino[1,2-a]pyrazin-2-yl]quinoline-8-carbonitrile]
- IC50 (human TLR8): 51 nM
- IC50 (human TLR7): 14 nM

SMILES: C[C@H]1CN(c2ccc(C#N)c3ncccc23)C[C@@H]2CN(c3ccc([C@@H]4CNCCO4)cc3)CCN21 [Example 125, 5-[(4S,9aS)-4-methyl-8-[4-[(2R)-morpholin-2-yl]phenyl]-3,4,6,7,9,9a-hexahydro-1H-pyrazino[1,2-a]pyrazin-2-yl]quinoline-8-carbonitrile]
- IC50 (human TLR8): 7 nM
- IC50 (human TLR7): 1 nM
